Laboratory results from US12545686B2, “Polymorphic forms of (s)-n-(3-bromo-2-fluorophenyl)-7-((4-methylpiperazin-1-yl)methyl)-7,8-dihydro-[1,4]dioxino[2,3-g]quinazolin-4-amine as EGFR inhibitors” (ERASCA, INC., priority 2021, dated 2026).

Key:
EGFR = EGFR (Homo sapiens, UniProt P00533); conditions: as disclosed in WO 2020/190765; cited from earlier work
[1] = pH dependent solubility tests in 0.1 M HCl, citrate buffer and USP phosphate buffers; type: physicochemical; conditions: in 1.0 ml of 0.1M HCl
Protocol: pH dependent solubility tests were conducted in 0.1 M HCl, in citrate buffer, and in USP phosphate buffers with nominal pH values of 6.8 and 7.4. Solubility tests at pH values below 5 failed because all compounds dissolved during the equilibration phase.

[2] = as disclosed in WO 2020/190765; cited from earlier work

EGFR, sequence (P00533 25-1210): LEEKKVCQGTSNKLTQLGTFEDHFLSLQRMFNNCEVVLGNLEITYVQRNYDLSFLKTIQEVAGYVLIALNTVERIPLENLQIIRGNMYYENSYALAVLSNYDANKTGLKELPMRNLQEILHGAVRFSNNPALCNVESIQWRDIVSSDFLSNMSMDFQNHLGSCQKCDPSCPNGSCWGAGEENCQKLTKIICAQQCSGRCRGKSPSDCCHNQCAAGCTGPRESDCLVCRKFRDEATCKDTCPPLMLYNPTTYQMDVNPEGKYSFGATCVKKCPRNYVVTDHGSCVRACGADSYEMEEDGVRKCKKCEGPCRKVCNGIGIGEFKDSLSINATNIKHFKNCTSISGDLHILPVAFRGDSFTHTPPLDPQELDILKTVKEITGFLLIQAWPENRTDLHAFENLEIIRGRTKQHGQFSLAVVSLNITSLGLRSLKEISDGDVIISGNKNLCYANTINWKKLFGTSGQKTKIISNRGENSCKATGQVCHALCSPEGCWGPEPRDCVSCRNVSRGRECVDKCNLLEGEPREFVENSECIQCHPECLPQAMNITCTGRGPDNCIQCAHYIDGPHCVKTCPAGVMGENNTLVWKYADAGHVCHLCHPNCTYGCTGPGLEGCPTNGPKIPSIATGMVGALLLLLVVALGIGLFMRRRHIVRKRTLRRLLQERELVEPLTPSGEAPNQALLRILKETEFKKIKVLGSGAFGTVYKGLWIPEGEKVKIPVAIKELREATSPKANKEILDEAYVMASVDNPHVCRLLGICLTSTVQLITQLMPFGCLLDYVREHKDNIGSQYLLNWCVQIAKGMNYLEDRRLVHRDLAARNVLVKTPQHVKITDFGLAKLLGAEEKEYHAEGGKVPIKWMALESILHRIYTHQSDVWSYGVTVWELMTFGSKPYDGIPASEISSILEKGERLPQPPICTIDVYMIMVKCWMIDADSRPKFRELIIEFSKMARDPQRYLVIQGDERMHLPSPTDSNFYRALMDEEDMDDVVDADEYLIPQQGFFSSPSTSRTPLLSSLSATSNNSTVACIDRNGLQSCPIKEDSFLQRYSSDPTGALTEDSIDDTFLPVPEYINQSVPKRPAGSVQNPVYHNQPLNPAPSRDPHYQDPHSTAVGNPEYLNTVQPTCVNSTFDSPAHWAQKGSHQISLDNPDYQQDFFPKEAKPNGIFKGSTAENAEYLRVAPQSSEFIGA

Amount of compound that easily dissolves (approximate test) [1]: ≥ 55 mg
Structure (SMILES): CN1CCN(C[C@H]2COc3cc4ncnc(Nc5cccc(Br)c5F)c4cc3O2)CC1 [Compound (I), (S)—N-(3-bromo-2-fluorophenyl)-7-((4-methylpiperazin-1-yl)methyl)-7,8-dihydro-[1,4]dioxino[2,3-g]quinazolin-4-amine]
EGFR inhibitory activity (EGFR): good EGFR inhibitory activity | Brain penetration capability [2]: brain penetration capability
